Data: PubChem BioAssay (NCI)
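These data come from cells grown in 96-well plates and exposed to compound for 48 hours at five concentrations. TGI is the concentration that stops growth completely.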 Where a SMILES comes first, the peptide text is derived from it. The star is where a group is joined. Boc = CC(C)(C)OC(=O)*; OBn = c1ccc(CO*)cc1

How the values were obtained:
Assay in all cases: growth of human tumour cells (NCI), 48 h
[1] = system: CAKI-1 renal
[2] = system: COLO 205 colon
[3] = system: DU-145 prostate
[4] = system: HCT-15 colon
[5] = system: HL-60(TB) leukemia
[6] = system: K-562 leukemia
[7] = system: NCI-H226 lung
[8] = system: NCI-H23 lung
[9] = system: SR leukemia
[10] = system: UACC-62 melanoma

Row | Compound | TGI [1] [µM] | TGI [2] [µM] | TGI [3] [µM] | TGI [4] [µM] | TGI [5] [µM] | TGI [6] [µM] | TGI [7] [µM] | TGI [8] [µM] | TGI [9] [µM] | TGI [10] [µM]
1 | CCOC(=O)C(NC(=O)CC)(Nc1ccc(S(=O)(=O)Nc2onc(C)c2C)cc1)C(F)(F)F (stereo unspecified) | > 100 | > 100 | > 100 | > 100 | > 100 | > 100 | > 100 | > 100 | > 100 | > 100
2 | OCC(CCc1ccccc1I)C1=CCC2(CC1)OCCO2 (stereo unspecified) | 65.2 | 34.6 | 48 | 54.7 | 28.9 | > 100 | 88.2 | 48.9 | > 100 | 35.6
3 | O=C(O)CC[P+](c1ccccc1)(c1ccccc1)c1ccccc1 | > 100 | 27.4 | > 100 | > 100 | 80.8 | > 100 | > 100 | > 100 | > 100 | > 100
4 | O=C1CC(C(CC(=O)c2ccccc2)c2ccccc2)C(=O)c2ccccc2N1 (stereo unspecified) | – | > 100 | > 100 | 94.9 | > 100 | > 100 | 77.8 | > 100 | > 100 | > 100
5 | C=C[C@@]1(O)CCCC[C@@H]1CC(Sc1ccccc1)Sc1ccccc1 | 30.1 | 32.3 | 32.2 | 34.6 | > 100 | > 100 | 38.7 | 32.7 | > 100 | > 100
6 | CC(C)=CCOc1cc(NC(=S)c2ccsc2C)ccc1Cl | > 100 | > 100 | > 100 | > 100 | > 100 | > 100 | > 100 | > 100 | 84.4 | > 100
7 | CCOC(=O)NNC(=O)NCc1ccccc1CNC(=O)NNC(=O)OCC | > 100 | > 100 | > 100 | > 100 | > 100 | > 100 | > 100 | > 100 | > 100 | > 100
8 | Nc1nccc(NCC2(CO)CCC2)n1 | > 100 | > 100 | > 100 | > 100 | > 100 | > 100 | > 100 | > 100 | > 100 | > 100
9 | COC(=O)C1=C(O)C(C(=O)OC)[C@]2(O)[C@@H](C(=O)OC)[C@H]1C[C@@H](c1ccccc1)[C@@H]2C(=O)OC (stereo partly specified) | – | – | 27 | 26.9 | > 100 | 33.4 | 61.5 | 32.1 | 24.1 | 25.1
10 | COC(=O)c1c(C)cccc1C1CN=NC12Cc1ccc(C)c(C)c1C2=O (stereo unspecified) | > 100 | – | > 100 | > 100 | 28.6 | > 100 | > 100 | > 100 | > 100 | 57.9
11 | NC(=O)c1cc(N(CCO)CCO)c([N+](=O)[O-])cc1[N+](=O)[O-] | > 100 | > 100 | > 100 | > 100 | > 100 | > 100 | > 100 | > 100 | > 100 | > 100
12 | Cc1ccnc2nc(N)ccc12 | > 100 | > 100 | > 100 | > 100 | > 100 | > 100 | > 100 | > 100 | > 100 | > 100
13 | C[N+](C)(C)C=Nc1cccc2c1CCCC2 | > 100 | > 100 | > 100 | > 100 | > 100 | > 100 | > 100 | > 100 | > 100 | > 100
14 | [O-][n+]1c(CN2CCCCC2)nc2cccc3c2c1-c1ccccc1-3 | 81.7 | 64.3 | 41.5 | > 100 | > 100 | > 100 | 39.8 | 48.5 | > 100 | 32.8
15 | O=S(=O)(O)c1cccc2cccc(N=Nc3c(O)ccc4ccccc34)c12 | > 100 | > 100 | > 100 | > 100 | > 100 | > 100 | > 100 | > 100 | > 100 | > 100
16 | Cc1ccc(-c2cc(O)c3nc4ccccc4n3c2)cc1 | > 100 | > 100 | > 100 | > 100 | > 100 | > 100 | > 100 | > 100 | > 100 | > 100

Row | Compound | TGI [1] [µM] | TGI [2] [µM] | TGI [3] [µM] | TGI [4] [µM] | TGI [5] [µM] | TGI [6] [µM] | TGI [7] [µM] | TGI [8] [µM] | TGI [9] [µM] | TGI [10] [µM]
17 | O=C1C=C2CCC[C@H]3OC(=O)C[C@@]23CC1 | > 100 | > 100 | > 100 | > 100 | > 100 | > 100 | > 100 | > 100 | > 100 | > 100
18 | Cc1nnc2n(c1=O)CCN2C | – | > 100 | > 100 | > 100 | > 100 | > 100 | > 100 | > 100 | > 100 | > 100
19 | O=c1[nH]c(=O)n(COCCO)c2ccsc12 | > 100 | > 100 | > 100 | > 100 | > 100 | > 100 | > 100 | > 100 | > 100 | –
20 | CCOc1ccc(N=NC2C(=O)N(C(=O)CC(=O)Nc3ccccc3)N=C2C)cc1 (stereo unspecified) | > 100 | > 100 | > 100 | > 100 | > 100 | – | > 100 | > 100 | > 100 | > 100
21 | CC1(C)CC2(C)CC1CC2(O)c1ccccc1 (stereo unspecified) | > 100 | > 100 | > 100 | – | > 100 | > 100 | > 100 | > 100 | > 100 | > 100
22 | O=[N+]([O-])c1ccc2oc(=Nc3ccccc3)c(Nc3ccccc3)nc2c1 | > 100 | > 100 | > 100 | > 100 | > 100 | > 100 | > 100 | > 100 | > 100 | > 100
23 | CC(=O)OC1C2CCC3C(C)(O)C4CC(O)C(C)(C)C4(O)C(O)CC13CC2(C)O (stereo unspecified) | > 100 | > 100 | > 100 | > 100 | > 100 | > 100 | > 100 | > 100 | > 100 | > 100
24 | Oc1ccccc1C1C=C(c2ccccc2)NC(N2CCCCC2)=C1c1nc2ccccc2[nH]1 (stereo unspecified) | – | 5.81 | 66.6 | 35.9 | 43 | > 100 | 35.1 | 30.3 | 35.3 | 29.8
25 | CC(C)CC(NC(=O)OC(C)(C)C)C(=O)NC(CC(=O)OCc1ccccc1)C(=O)OCc1ccccc1 (stereo not drawn) (Boc-Leu-Asp(OBn)-OBn; configuration not given here) | > 100 | > 100 | > 100 | – | > 100 | > 100 | > 100 | > 100 | 63.8 | 45.9
26 | N=C(N)SCCC(=O)CCSC(=N)N | – | > 100 | > 100 | > 100 | > 100 | > 100 | > 100 | > 100 | > 100 | –
27 | COCC1OC(S(=O)(=O)c2ccccc2)C(O)C(OC)C1OC (stereo unspecified) | > 100 | > 100 | > 100 | > 100 | > 100 | > 100 | > 100 | > 100 | > 100 | > 100
28 | COc1ccc(C(Cc2ccccc2)C2NC(=S)NC2=O)cc1 (stereo unspecified) | > 25 | > 25 | > 25 | > 25 | > 25 | > 25 | > 25 | > 25 | > 25 | –
29 | CC(C)(C)CC(C)(C)NC(=S)NO | > 100 | > 100 | > 100 | > 100 | > 100 | > 100 | > 100 | > 100 | > 100 | > 100
30 | O=CC(O)C(O)C(O)C1CNC(=S)O1 (stereo unspecified) | > 100 | > 100 | > 100 | > 100 | > 100 | > 100 | > 100 | > 100 | > 100 | > 100
31 | Nc1ccc(Nc2cc(=O)[nH]c(=O)[nH]2)cc1 | > 100 | – | > 100 | > 100 | > 100 | > 100 | > 100 | > 100 | > 100 | > 100
32 | CN(C)c1ccc(/C=C/C(=O)N[C@@H]2C(=O)N3[C@@H]2SC(C)(C)[C@@H]3C(=O)O)cc1 | > 100 | > 100 | > 100 | > 100 | > 100 | > 100 | > 100 | > 100 | > 100 | > 100
